Data taken from patent US11415579B2, “Assay for measuring a rate of reaction between a target and a ligand candidate” (Imperial College Innovations Ltd., priority 2016, dated 2022).

Tests used:
[1] = Kinetic thiol consumption assay with model thiol glutathione; assay type: physicochemical; parameters: Rate constant with glutathione (k(GSH)): unit not given here; details: for Rate constant with glutathione (k(GSH)): 500 μM ligand, 5 μM thiol, phosphate buffer pH 8; for Rate constant with Glutathione: Protein: Glutathione, cysteine position NA, in h-1
Procedure: (§1) A library of 120 acrylamides was screened against a) human cyclin-dependent kinase 2 (Cdk2, which contains one surface exposed cysteine residue—C177), prepared by cloning cDNA into the pRSETA bacterial expression vector to generate a poly-histidine tagged Cdk2 fusion that was purified from E. coli using standard techniques, and b) a model thiol (specific details are given below). The structures of these 120 acrylamides are set out in Table 1, above.
(§2) To wells containing 150 μL thiol (Cdk2 or model thiol) (5 μM) in degassed phosphate buffer (pH 8) was added immobilized TCEP beads (2% v/v).
(§3) After incubation of the fluorescence plates for 1 hour at room temperature, fluorescence measurements (excitation/emission of 380/470 nm) were taken on a PerkinElmer EnVision multilabel plate reader and processed with EnVision Workstation version 1.12.
(§4) Fluorescence measurements were normalized against a DMSO/thiol only control and plotted against time.
(§5) Rate constants were calculated using GraphPad software Prism version 6 by fitting a first order exponential decay to the data. The rate constant for each acrylamide with Cdk2 was divided by the rate constant for that fragment with the model thiol to provide the rate enhancement for each ligand candidate.
The model thiol in Example 1 is glutathione (GSH). Hits were defined as fragments where kCdk2/kGSH>5.8 (empirically determined as 3 standard deviations over the mean).

[2] = molecular target: T1, human cyclin-dependent kinase 2 (Cdk2) (Homo sapiens, UniProt P24941); assay: Kinetic thiol consumption assay with wild type Cdk2 (C177); assay type: binding; parameters: key to Rate enhancement, Cdk2 WT: k(Cdk2) divided by k(model thiol); Rate constant with Cdk2 (k(Cdk2)): unit not given here; details: for Rate constant with Cdk2 (k(Cdk2)): 500 μM ligand, 5 μM thiol, phosphate buffer pH 8; for Rate enhancement, Cdk2 WT: no additional mutations; for Rate constant with Cdk2 WT: Protein: Cdk2, cysteine position WT, in h^-1; for k(Cdk2)/k(GSH) rate enhancement: model thiol glutathione
T1 construct: poly-histidine; made in house; host or cells: E. coli
Procedure: as §1, §2, §3, §4, §5

[3] = molecular target: T2, Cdk2(C177A, F80C) (Homo sapiens, UniProt P24941, C177A/F80C); assay: Kinetic thiol consumption assay with Cdk2 mutant F80C, incl. kobs versus concentration (Kd, k2); assay type: binding; parameters: key to Rate enhancement, Cdk2 F80C: Cdk2 rate constant divided by model-thiol rate constant; details: additional mutation C177A; for Rate constant with Cdk2 F80C: Protein: Cdk2, cysteine position F80C, in h^-1
T2 construct: poly-histidine; made in house; host or cells: E. coli
Procedure: Therefore the assay can be used to calculate both k2 and Kd by experimentally determining kobs at a suitable range of ligand candidate concentrations. Typically Kd and k2 would then be determined by fitting a hyperbolic curve to a plot of kobs against ligand candidate concentration (FIG. 9).
as §2, §3, §4, §5
(§6) A further set of set of additional Cdk2 mutants were screened, all containing the C177A mutation and therefore with only one cysteine on the surface: • F80C (without the K278C mutation) • H71C • S276C • N272 • T182C • R122C • S181C
(§7) Mutations were introduced by site-directed mutagenesis and the resulting cDNA was cloned into the pRSETA bacterial expression vector to generate a poly-histidine tagged Cdk2 fusion that was purified from E. coli using standard techniques.
Rate constants were calculated as described in the methodology section of Examples 1 and 2.

[4] = molecular target: T3, Cdk2(H71C) (C177A) (Homo sapiens, UniProt P24941, C177A/H71C); assay: Kinetic thiol consumption assay with Cdk2 mutant H71C; assay type: binding; parameters: key to Rate enhancement, Cdk2 H71C: rate constant with Cdk2 ÷ rate constant with model thiol (fold); details: additional mutation C177A; for Rate constant with Cdk2 H71C: Protein: Cdk2, cysteine position H71C, in h^-1
T3 construct: poly-histidine; made in house; host or cells: E. coli
Procedure: as §2, §3, §4, §5, §6, §7

[5] = molecular target: T4, Cdk2(S276C) (C177A) (Homo sapiens, UniProt P24941, C177A/S276C); assay: Kinetic thiol consumption assay with Cdk2 mutant S276C; assay type: binding; parameters: key to Rate enhancement, Cdk2 S276C: rate constant with Cdk2 ÷ rate constant with model thiol (fold); details: additional mutation C177A; for Rate constant with Cdk2 S276C: Protein: Cdk2, cysteine position S276C, in h^-1
T4 construct: poly-histidine; made in house; host or cells: E. coli
Procedure: as §2, §3, §4, §5, §6, §7

[6] = molecular target: T5, Cdk2(N272C) (C177A) (Homo sapiens, UniProt P24941, C177A/N272C); assay: Kinetic thiol consumption assay with Cdk2 mutant N272C; assay type: binding; parameters: key to Rate enhancement, Cdk2 N272: rate constant with Cdk2 ÷ rate constant with model thiol (fold); details: for Rate enhancement, Cdk2 N272: Cdk2 N272, additional mutation C177A; for Rate constant with Cdk2 N272C: Protein: Cdk2, cysteine position N272C, additional mutation C177A, in h^-1
T5 construct: poly-histidine; made in house; host or cells: E. coli
Procedure: as §2, §3, §4, §5, §6, §7

[7] = molecular target: T6, Cdk2(T182C) (C177A) (Homo sapiens, UniProt P24941, C177A/T182C); assay: Kinetic thiol consumption assay with Cdk2 mutant T182C; assay type: binding; parameters: key to Rate enhancement, Cdk2 T182C: rate constant with Cdk2 ÷ rate constant with model thiol (fold); details: additional mutation C177A; for Rate constant with Cdk2 T182C: Protein: Cdk2, cysteine position T182C, in h^-1
T6 construct: poly-histidine; made in house; host or cells: E. coli
Procedure: as §2, §3, §4, §5, §6, §7

[8] = molecular target: T7, Cdk2(R122C) (C177A) (Homo sapiens, UniProt P24941, C177A/R122C); assay: Kinetic thiol consumption assay with Cdk2 mutant R122C; assay type: binding; parameters: key to Rate enhancement, Cdk2 R122C: rate constant with Cdk2 ÷ rate constant with model thiol (fold); details: additional mutation C177A; for Rate constant with Cdk2 R122C: Protein: Cdk2, cysteine position R122C, in h-1
T7 construct: poly-histidine; made in house; host or cells: E. coli
Procedure: as §2, §3, §4, §5, §6, §7

[9] = molecular target: T8, Cdk2(S181C) (C177A) (Homo sapiens, UniProt P24941, C177A/S181C); assay: Kinetic thiol consumption assay with Cdk2 mutant S181C; assay type: binding; parameters: key to Rate enhancement, Cdk2 S181C: rate constant with Cdk2 ÷ rate constant with model thiol (fold); details: additional mutation C177A; for Rate constant with Cdk2 S181C: Protein: Cdk2, cysteine position S181C, in h^-1
T8 construct: poly-histidine; made in house; host or cells: E. coli
Procedure: as §2, §3, §4, §5, §6, §7

Rate constant with Cdk2 (k(Cdk2)) [2] | Rate enhancement, Cdk2 WT [2] | Rate constant with Cdk2 WT [2] | k(Cdk2)/k(GSH) rate enhancement [2] | Rate enhancement, Cdk2 F80C [3] | Rate constant with Cdk2 F80C [3] | Rate enhancement, Cdk2 H71C [4] | Rate constant with Cdk2 H71C [4] | Rate enhancement, Cdk2 S276C [5] | Rate constant with Cdk2 S276C [5] | Rate enhancement, Cdk2 N272 [6] | Rate constant with Cdk2 N272C [6] | Rate enhancement, Cdk2 T182C [7] | Rate constant with Cdk2 T182C [7] | Rate enhancement, Cdk2 R122C [8] | Rate constant with Cdk2 R122C [8] | Rate enhancement, Cdk2 S181C [9] | Rate constant with Cdk2 S181C [9] | SMILES | Rate constant with glutathione (k(GSH)) [1] | Rate constant with Glutathione [1]
0.0023 | 0.2968 | 0.002299 | 0.4376 | 0.1028 | 0.0007964 | 0.1944 | 0.001506 | 0.9396 | 0.007277 | 0.3769 | 0.002919 | 2.003 | 0.01551 | 0.6918 | 0.005358 | 1.139 | 0.008821 | C=CC(=O)N1CCN(Cc2noc(C3CC3)n2)CC1 [CA-091] | 0.00525 | 0.007745
0.00205 | 0.6483 | 0.002046 | 0.6425 | 0 |  | 0 |  | 0 |  | 1.155 | 0.003646 | 1.904 | 0.00601 | 0.846 | 0.00267 | 2.572 | 0.008117 | C=CC(=O)N1CC(OCCN(CC)CC)C1 [CA-145] | 0.00318 | 0.003156
0.00288 | 1.257 | 0.01041 | 0.7234 | 0.165 | 0.001367 | 1.058 | 0.008761 | 68.22 | 0.5651 | 87.21 | 0.7224 | 10.22 | 0.08469 | 0.376 | 0.003114 | 0.9237 | 0.007651 | C=CC(=O)N(Cc1ccco1)C12CC3CC(CC(C3)C1)C2 [CA-157] | 0.00399 | 0.008283
0.00381 | 1.268 | 0.003813 | 1.254 | 0 |  | 0.6721 | 0.002021 | 0.6169 | 0.001855 | 1.56 | 0.004691 | 6.867 | 0.02065 | 1.368 | 0.004115 | 3.018 | 0.009074 | C=CC(=O)N(C)C1C2CCOC2C1(C)C (centres unmarked) [CA-182] | 0.00304 | 0.003007
0.00372 | 1.03 | 0.003735 | 1.021 | 0.4719 | 0.001711 | 0 |  | 0.4186 | 0.001518 | 0.8296 | 0.003008 | 2.74 | 0.009935 | 0.7394 | 0.002681 | 0.7592 | 0.002753 | C#CCN1CCCN(C(=O)C=C)CC1 [CA-196] | 0.00365 | 0.003626

The remaining lines, values behind:

SMILES | Rate constant with Cdk2 (k(Cdk2)) [2] | Rate enhancement, Cdk2 WT [2] | Rate constant with Cdk2 WT [2] | k(Cdk2)/k(GSH) rate enhancement [2] | Rate enhancement, Cdk2 F80C [3] | Rate constant with Cdk2 F80C [3] | Rate enhancement, Cdk2 H71C [4] | Rate constant with Cdk2 H71C [4] | Rate enhancement, Cdk2 S276C [5] | Rate constant with Cdk2 S276C [5] | Rate enhancement, Cdk2 N272 [6] | Rate constant with Cdk2 N272C [6] | Rate enhancement, Cdk2 T182C [7] | Rate constant with Cdk2 T182C [7] | Rate enhancement, Cdk2 R122C [8] | Rate constant with Cdk2 R122C [8] | Rate enhancement, Cdk2 S181C [9] | Rate constant with Cdk2 S181C [9] | Rate constant with glutathione (k(GSH)) [1] | Rate constant with Glutathione [1]
C=CC(=O)N1CCCCCC1C/C=C/c1ccccc1 (centres unmarked) [CA-096/146] |  | 0.3023 | 0.003401 |  | 1.641 | 0.01846 | 0.8889 | 0.01 | 1.276 | 0.01436 | 0.8907 | 0.01002 | 10.32 | 0.1161 | 0.7142 | 0.008035 | 12.97 | 0.1459 |  | 0.01125
C=CC(=O)N(Cc1ccco1)Cc1ccco1 [CA-099/153] |  | 1.366 | 0.2899 |  | 0.1651 | 0.03506 | 0.2907 | 0.06172 | 2.266 | 0.481 | 2.393 | 0.5081 | 2.038 | 0.4326 | 2.423 | 0.5145 | 1.479 | 0.314 |  | 0.2123
C=CC(=O)N1CCC2(CC1)NC(=O)C1(CCCCC1)N2 [CA-129/235] |  | 0.2508 | 0.002741 |  | 0.1819 | 0.001988 | 0.03271 | 0.0003575 | 1.682 | 0.01838 | 0.3936 | 0.004302 | 0.8826 | 0.009647 | 0.925 | 0.01011 | 0.2227 | 0.002434 |  | 0.01093
